The record followed here is US9085555B2, “Complement pathway modulators and uses thereof” (priority 2011, dated 2015).

This experiment addresses Factor D (Homo sapiens (Human), UniProt P00746). Kind of experiment: biochemical. The class given is biochemical. To be noted: read-out: IC50.

Structures are written as SMILES.

Chain of Factor D (P00746 26-253): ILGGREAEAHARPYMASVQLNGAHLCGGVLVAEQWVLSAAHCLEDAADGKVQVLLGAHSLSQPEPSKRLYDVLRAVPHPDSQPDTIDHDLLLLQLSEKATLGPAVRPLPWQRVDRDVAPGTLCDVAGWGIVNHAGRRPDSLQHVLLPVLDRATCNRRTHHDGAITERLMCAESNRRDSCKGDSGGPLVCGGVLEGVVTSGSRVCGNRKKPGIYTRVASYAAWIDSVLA

In the case of `NC(=O)n1cc(NC(=O)N2C[C@@H](N)C[C@H]2C(=O)NCCc2cccc(Cl)c2)c2ccccc21` [Example 86, (2S,4S)-4-Amino-pyrrolidine-1,2-dicarboxylic acid 1-[(1-carbamoyl-1H-indol-3-yl)-amide] 2-{[2-(3-chloro-phenyl)-ethyl]-amide}], the IC50 was determined as 14300 nM. To `NC(=O)n1cc(NC(=O)N2C[C@@H](N)C[C@H]2C(=O)NCCc2ccccc2Cl)c2ccccc21` [Example 87, (2S,4S)-4-Amino-pyrrolidine-1,2-dicarboxylic acid 1-[(1-carbamoyl-1Hindol-3-yl)-amide] 2-{[2-(2-chloro-phenyl)-ethyl]-amide}] belongs 4650 nM; to `NC(=O)n1cc(NC(=O)N2C[C@@H](N)C[C@H]2C(=O)NCCc2ccccc2F)c2ccccc21` [Example 88, (2S,4S)-4-Amino-pyrrolidine-1,2-dicarboxylic acid 1-[(1-carbamoyl-1Hindol-3-yl)-amide] 2-{[2-(2-fluoro-phenyl)-ethyl]-amide}], 6800 nM; to `NC(=O)n1cc(NC(=O)N2C[C@@H](N)C[C@H]2C(=O)NCCc2cccc(F)c2)c2ccccc21` [Example 89, (2S,4S)-4-Amino-pyrrolidine-1,2-dicarboxylic acid 1-[(1-carbamoyl-1Hindol-3-yl)-amide] 2-{[2-(3-fluoro-phenyl)-ethyl]-amide}], 7700 nM. As to `NC(=O)n1cc(NC(=O)N2C[C@@H](N)C[C@H]2C(=O)NCCc2cc(F)cc(Cl)c2)c2ccccc21` [Example 90, (2S,4S)-4-Amino-pyrrolidine-1,2-dicarboxylic acid 1-[(1-carbamoyl-1H-indol-3-yl)-amide] 2-{[2-(3-chloro-5-fluoro-phenyl)-ethyl]-amide}], the concentration for half-maximal inhibition (IC50) turned out to be 1150 nM. Then `CC[C@H](C)[C@H](NC(=O)[C@@H]1C[C@H](N)CN1C(=O)Nc1cn(C(N)=O)c2ccccc12)C(=O)OC` [Example 92, (2S,3S)-2-{[(2S,4S)-4-Amino-1-(1-carbamoyl-1H-indol-3-ylcarbamoyl)-pyrrolidine-2-carbonyl]-amino}-3-methyl-pentanoic acid methyl ester], with 8650 nM; and `CCC[C@H](NC(=O)[C@@H]1C[C@H](N)CN1C(=O)Nc1cn(C(N)=O)c2ccccc12)C(=O)OC` [Example 93, (S)-2-{[(2S,4S)-4-Amino-1-(1-carbamoyl-1H-indol-3-ylcarbamoyl)-pyrrolidine-2-carbonyl]-amino}-pentanoic acid methyl ester], with 4000 nM. With `COC(=O)[C@H](CC(C)C)NC(=O)[C@@H]1C[C@H](N)CN1C(=O)Nc1cn(C(N)=O)c2ccccc12` [Example 95, (S)-2-{[(2S,4S)-4-Amino-1-(1-carbamoyl-1H-indol-3-ylcarbamoyl)-pyrrolidine-2-carbonyl]-amino}-4-methyl-pentanoic acid methyl ester], the IC50 amounted to 1350 nM. Consider `COC(=O)[C@H](COC(C)(C)C)NC(=O)[C@@H]1C[C@H](N)CN1C(=O)Nc1cn(C(N)=O)c2ccccc12` [Example 96, (S)-2-{[(2S,4S)-4-Amino-1-(1-carbamoyl-1H-indol-3-ylcarbamoyl)-pyrrolidine-2-carbonyl]-amino}-3-tert-butoxy-propionic acid methyl ester], for which the IC50 was determined as 8050 nM. Regarding `COC(=O)[C@H](Cc1ccccc1)NC(=O)[C@@H]1C[C@H](N)CN1C(=O)Nc1cn(C(N)=O)c2ccccc12` [Example 97, (S)-2-{[(2S,4S)-4-Amino-1-(1-carbamoyl-1H-indol-3-ylcarbamoyl)-pyrrolidine-2-carbonyl]-amino}-3-phenyl-propionic acid methyl ester], the IC50 worked out at 900 nM.

For `COC(=O)[C@@H](NC(=O)[C@@H]1C[C@H](N)CN1C(=O)Nc1cn(C(N)=O)c2ccccc12)c1ccccc1` [Example 98, (S)-{[(2S,4S)-4-Amino-1-(1-carbamoyl-1H-indol-3-ylcarbamoyl)-pyrrolidine-2-carbonyl]-amino}-phenyl-acetic acid methyl ester], the IC50 was 1850 nM.

Consider `CC[C@H](C)[C@H](NC(=O)[C@@H]1C[C@H](N)CN1C(=O)Nc1cn(C(N)=O)c2ccccc12)C(N)=O` [Example 99, (2S,4S)-4-Amino-pyrrolidine-1,2-dicarboxylic acid 1-[(1-carbamoyl-1H-indol-3-yl)-amide] 2-[((1S,2S)-1-carbamoyl-2-methyl-butyl)-amide]], for which the IC50 is 23200 nM.

For `CCc1cccc(CNC(=O)[C@@H]2C[C@H](N)CN2C(=O)Nc2cn(C(N)=O)c3ccccc23)c1` [Example 100, (2S,4S)-4-Amino-pyrrolidine-1,2-dicarboxylic acid 1-[(1-carbamoyl-1H-indol-3-yl)-amide] 2-(3-ethyl-benzylamide)], the IC50 was found to be 17600 nM. As for `CC[C@H](C)[C@@H](CO)NC(=O)[C@@H]1C[C@H](N)CN1C(=O)Nc1cn(C(N)=O)c2ccccc12` [Example 101, (2S,4S)-4-Amino-pyrrolidine-1,2-dicarboxylic acid 1-[(1-carbamoyl-1H-indol-3-yl)-amide] 2-[((1S,2S)-1-hydroxymethyl-2-methyl-butyl)-amide]], the IC50 was found to be 15200 nM. Then `CC(C)c1cccc(NC(=O)[C@@H]2C[C@H](N)CN2C(=O)Nc2cn(C(N)=O)c3ccccc23)c1` [Example 102, (2S,4S)-4-Amino-pyrrolidine-1,2-dicarboxylic acid 1-[(1-carbamoyl-1H-indol-3-yl)-amide]2-[(3-isopropyl-phenyl)-amide]], with 567 nM. In the case of `NC(=O)n1cc(NC(=O)N2C[C@@H](N)C[C@H]2C(=O)Nc2cccc(-c3ccccc3)c2)c2ccccc21` [Example 103, (2S,4S)-4-Amino-pyrrolidine-1,2-dicarboxylic acid 2-biphenyl-3-ylamide 1-[(1-carbamoyl-1H-indol-3-yl)-amide]], the IC50 was determined as 550 nM. `NC(=O)n1cc(NC(=O)N2C[C@H](F)C[C@H]2CNS(=O)(=O)c2ccccc2F)c2ccccc21` [Example 104, 3-({(2S,4R)-4-Fluoro-2-[(2-fluoro-benzenesulfonylamino)-methyl]-pyrrolidine-1-carbonyl}-amino)-indole-1-carboxylic acid amide]: the IC50 is 1490 nM. Consider `NC(=O)n1cc(NC(=O)N2C[C@H](F)C[C@H]2CNS(=O)(=O)c2ccccc2)c2ccccc21` [Example 105, 3-{[(2S,4R)-2-(Benzenesulfonylamino-methyl)-4-fluoro-pyrrolidine-1-carbonyl]-amino}-indole-1-carboxylic acid amide], for which the IC50 amounted to 800 nM. For the compound `NC(=O)n1cc(NC(=O)N2C[C@H](F)C[C@H]2CNS(=O)(=O)c2cccc(F)c2)c2ccccc21` [Example 106, 3-({(2S,4R)-4-Fluoro-2-[(3-fluoro-benzenesulfonylamino)-methyl]-pyrrolidine-1-carbonyl}-amino)-indole-1-carboxylic acid amide], the IC50 amounted to 700 nM. Then `NC(=O)n1cc(NC(=O)N2C[C@H](F)C[C@H]2CNS(=O)(=O)c2cccc(Cl)c2)c2ccccc21` [Example 107, 3-({(2S,4R)-4-Fluoro-2-[(3-chloro-benzenesulfonylamino)-methyl]-pyrrolidine-1-carbonyl}-amino)-indole-1-carboxylic acid amide], with 75 nM.
